Assay results: ChEMBL document CHEMBL5154787 (J Med Chem, 2022)
Each block holds one compound with its values, some of them ahead of it.

What was measured:
[1] = target: Acetylcholine receptor subunit alpha (Homo sapiens, UniProt P02708); test: Inhibition of nicotinic acetylcholine receptor alpha 1 (unknown origin); type: toxicity
[2] = target: AP2-associated protein kinase 1 (Homo sapiens, UniProt Q2M2I8); test: Inhibition of bacterially expressed GST-Xa-tagged human AAK1 using 5-FAM-labelled Aha-KEEQSQITSQVTGQIGWR-NH2 peptide as substrate incubated for 3 hrs in presence of ATP by electrophoretic analysis
[3] = Solubility of compound in FessiF incubated for 24 hrs; type: physicochemical
[4] = Solubility of compound in FaSSIF incubated for 24 hrs; type: physicochemical
[5] = Chemical stability of the compound assessed as remaining product at pH 7.4 measured after 22 hrs; type: physicochemical; details: buffer, read-out: Stability
[6] = Solubility of compound at pH 3 measured after 24 hrs; type: physicochemical; details: buffer
[7] = Plasma concentration in CCI induced thermal hyperalgesia in Sprague-Dawley rat at 3 mg/kg, po measured at 5.5 hrs post dose; type: ADME, organism-based
[8] = Protein binding in mouse brain assessed as unbound fraction at 1 uM measured after 4 hrs by LC/MS/MS analysis; type: ADME, tissue-based
[9] = target: TRAF2 and NCK-interacting protein kinase (Homo sapiens, UniProt Q9UKE5); test: Inhibition of TNIK (unknown origin)
TRAF2 and NCK-interacting protein kinase, sequence (Q9UKE5 whole entry): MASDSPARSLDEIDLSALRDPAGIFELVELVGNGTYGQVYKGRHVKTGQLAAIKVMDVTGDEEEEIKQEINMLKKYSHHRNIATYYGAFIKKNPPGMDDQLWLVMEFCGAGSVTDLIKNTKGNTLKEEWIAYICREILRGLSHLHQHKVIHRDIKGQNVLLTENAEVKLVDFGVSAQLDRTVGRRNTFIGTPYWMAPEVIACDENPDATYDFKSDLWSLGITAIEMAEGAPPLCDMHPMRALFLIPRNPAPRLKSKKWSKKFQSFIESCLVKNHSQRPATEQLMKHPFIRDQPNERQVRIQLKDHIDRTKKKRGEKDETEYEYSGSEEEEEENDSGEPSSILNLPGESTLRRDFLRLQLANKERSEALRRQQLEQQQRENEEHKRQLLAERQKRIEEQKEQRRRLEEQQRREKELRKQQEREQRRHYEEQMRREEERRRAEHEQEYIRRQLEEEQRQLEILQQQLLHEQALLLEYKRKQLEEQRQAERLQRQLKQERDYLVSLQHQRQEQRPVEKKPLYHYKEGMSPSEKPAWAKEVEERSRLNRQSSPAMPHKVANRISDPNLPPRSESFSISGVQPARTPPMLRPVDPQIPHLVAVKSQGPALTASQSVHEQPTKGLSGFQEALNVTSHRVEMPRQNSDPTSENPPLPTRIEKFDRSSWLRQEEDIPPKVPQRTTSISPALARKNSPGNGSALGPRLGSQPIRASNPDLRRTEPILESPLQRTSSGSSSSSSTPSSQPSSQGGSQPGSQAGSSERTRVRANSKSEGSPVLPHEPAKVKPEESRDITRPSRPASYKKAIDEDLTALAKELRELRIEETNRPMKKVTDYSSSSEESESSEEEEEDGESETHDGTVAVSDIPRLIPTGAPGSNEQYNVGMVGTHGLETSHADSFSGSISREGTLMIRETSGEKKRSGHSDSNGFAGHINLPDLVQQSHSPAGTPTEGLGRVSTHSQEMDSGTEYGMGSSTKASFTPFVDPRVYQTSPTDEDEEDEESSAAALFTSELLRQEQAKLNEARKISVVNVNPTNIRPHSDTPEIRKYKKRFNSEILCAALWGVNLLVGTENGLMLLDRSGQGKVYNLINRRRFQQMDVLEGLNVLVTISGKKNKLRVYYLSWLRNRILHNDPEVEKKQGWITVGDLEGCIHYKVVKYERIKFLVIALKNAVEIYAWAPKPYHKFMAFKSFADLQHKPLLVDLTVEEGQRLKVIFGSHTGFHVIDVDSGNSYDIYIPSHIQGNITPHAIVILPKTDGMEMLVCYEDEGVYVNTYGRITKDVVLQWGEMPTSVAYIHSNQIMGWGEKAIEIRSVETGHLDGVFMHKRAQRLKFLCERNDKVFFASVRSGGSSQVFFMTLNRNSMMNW

Acetylcholine receptor subunit alpha, sequence (P02708 whole entry): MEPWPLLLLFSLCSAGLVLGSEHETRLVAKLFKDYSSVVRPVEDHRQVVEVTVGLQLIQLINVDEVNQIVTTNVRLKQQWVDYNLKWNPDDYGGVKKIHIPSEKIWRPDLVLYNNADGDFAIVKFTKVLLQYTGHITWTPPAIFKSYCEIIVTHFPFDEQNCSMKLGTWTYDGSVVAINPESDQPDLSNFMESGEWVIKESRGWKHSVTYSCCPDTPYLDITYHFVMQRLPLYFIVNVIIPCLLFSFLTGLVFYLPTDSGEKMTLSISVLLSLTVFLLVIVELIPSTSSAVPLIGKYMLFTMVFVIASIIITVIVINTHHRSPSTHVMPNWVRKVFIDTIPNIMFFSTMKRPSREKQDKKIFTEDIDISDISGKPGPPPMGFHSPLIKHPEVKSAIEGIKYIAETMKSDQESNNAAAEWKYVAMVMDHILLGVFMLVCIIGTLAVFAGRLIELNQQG
AP2-associated protein kinase 1, sequence (Q2M2I8 whole entry): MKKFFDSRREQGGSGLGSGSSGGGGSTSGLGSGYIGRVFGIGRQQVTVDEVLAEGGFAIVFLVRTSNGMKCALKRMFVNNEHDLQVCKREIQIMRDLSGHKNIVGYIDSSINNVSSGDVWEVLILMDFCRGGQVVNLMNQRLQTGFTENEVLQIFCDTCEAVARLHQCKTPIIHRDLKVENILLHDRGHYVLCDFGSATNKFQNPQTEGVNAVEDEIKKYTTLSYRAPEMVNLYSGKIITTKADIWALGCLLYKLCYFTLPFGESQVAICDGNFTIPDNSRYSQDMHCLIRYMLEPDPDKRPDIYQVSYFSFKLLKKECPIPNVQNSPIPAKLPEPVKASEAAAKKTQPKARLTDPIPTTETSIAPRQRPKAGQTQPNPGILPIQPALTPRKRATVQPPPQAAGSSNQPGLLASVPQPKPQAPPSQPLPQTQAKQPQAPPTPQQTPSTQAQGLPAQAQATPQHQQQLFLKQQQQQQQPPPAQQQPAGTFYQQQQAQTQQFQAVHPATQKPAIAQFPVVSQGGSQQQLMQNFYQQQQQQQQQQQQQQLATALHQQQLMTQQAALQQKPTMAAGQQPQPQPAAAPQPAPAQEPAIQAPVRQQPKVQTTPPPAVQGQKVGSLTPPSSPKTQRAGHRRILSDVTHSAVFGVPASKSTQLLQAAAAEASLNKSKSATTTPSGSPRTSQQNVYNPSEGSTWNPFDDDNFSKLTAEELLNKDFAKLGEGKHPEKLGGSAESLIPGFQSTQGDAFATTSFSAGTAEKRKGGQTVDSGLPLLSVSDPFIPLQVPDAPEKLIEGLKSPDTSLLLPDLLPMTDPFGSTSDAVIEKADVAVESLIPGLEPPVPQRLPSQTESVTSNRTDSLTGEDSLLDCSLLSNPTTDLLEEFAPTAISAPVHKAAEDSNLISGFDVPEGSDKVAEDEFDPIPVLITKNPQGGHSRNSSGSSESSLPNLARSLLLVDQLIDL

IC50 [2]: 0.9 nM
Compound: COC(=O)Nc1cc(-c2cnc(OC[C@@](C)(N)CC(C)C)c(C)c2)ccn1
IC50 [1]: 2200 nM

solubility at 24 h [3]: > 1000 µg/mL
solubility at 24 h [4]: > 1000 µg/mL
remaining at 22 h [5]: 100%
solubility at 24 h [6]: > 1000 µg/mL
Compound: COC(=O)Nc1cc(-c2ccc(OC[C@@](C)(N)CC(C)C)c(C)n2)ccn1

concentration at 5.5 h [7]: 29 nM
fraction unbound at 4 h, 1 µM [8]: 0.018
IC50 [9]: 2000 nM
Compound: CC(C)C[C@](C)(N)COc1cnc(-c2ccnc(C(F)F)c2)cc1C(F)F
